This note sets out measurements from US20130217678A1, “PHARMACEUTICAL AGENT COMPRISING QUINOLONE COMPOUND” (OTSUKA PHARMACEUTICAL CO., LTD., priority 2008, published 2013).

The structures appear in SMILES notation.

Series [1] relates to tyrosine hydroxylase (TH). Kind of series: Dopaminergic neuronal protective activity in MPTP-treated C57BL/6 mouse: TH protein level in striatum (Western blot). The class given is in vivo. Particulars: 10 mg/kg oral at 30 min, 24 h, 48 h after MPTP s.c.; striatum 72 h after MPTP; mouse without MPTP = 100%. As to the method: (§1) Using a mouse having MPTP-induced dopaminergic neurons (Chan P. et al., J Neurochem, 57, 348-351 (1991)), the dopaminergic neuronal protective activity was evaluated based on the protein levels of tyrosine hydroxylase (TH) and dopamine transporter (DAT), which are dopaminergic neuronal marker proteins, and a dopamine content in the brain corpus striatum region after the compound administration (Mori A. et al., Neurosci Res, 51, 265-274 (2005)).
(§2) A male C57BL/6 mouse (provided by Japan Charles River Inc., 10 to 12 weeks) was used as a test animal. MPTP was dissolved in a physiological salt solution so that the concentration was 4 mg/ml, and then administered to the mouse subcutaneously in a volume of 10 ml/kg. A test compound was suspended in a 5% gum arabic/physiological salt solution (w/v) so that the concentration was 1 mg/ml. Each of the test compounds or solvents thereof was orally administered to the mouse after 30 minutes, 24 hours, and 48 hours of the MPTP administration. The mouse was decapitated after 72 hours of the MPTP administration, the brain was removed, and each side of the striatum was dissected.
(§3) The left striatum was used as a sample to detect the protein level by Western blot analysis. Each tissue was homogenized in a HEPES buffer sucrose solution (0.32 M sucrose, 4 μg/ml pepstatin, 5 μg/ml aprotinin, 20 μg/ml trypsin inhibitor, 4 μg/ml leupeptin, 0.2 mM phenylmethanesulfonyl fluoride, 2 mM ethylenediaminetetraacetic acid (EDTA), 2 mM ethylene glycol bis(β aminoethyl ether) tetraacetic acid, 20 mM HEPES, pH 7.2), and assayed for protein using a bicinchoninic acid kit for protein assay (provided by Pierce Corporation). Each homogenized sample, having an equal amount of protein that had been dissolved in a Laemmli sample buffer solution, was subjected to electrophoresis through a sodium dodecyl sulfate polyacrylamide gel. […] Subsequently, a horseradish peroxidase-labeled secondary antibody (a product of Amersham K.K.) for each primary antibody was fixed, and the chemiluminescence associated with enzyme activity of peroxidase was detected using a X-ray film. The density of the protein band on the film was analyzed using a densitometer (a product of Bio-rad Laboratories Inc.) to obtain the TH value relative to Na^+/K^+-ATPase and the DAT value relative to actin.
(§4) In both analyses, the value of the sample derived from the MPTP-induced mouse in which only the test compound or the solvent was administered was expressed relative to the value of the sample derived from the mouse without MPTP treatment (100%). Values were analyzed statistically using a nonclinical statistical analysis system, and values of significance probability less than 0.05 were defined as significant.

Series [2] relates to human neuroblastoma cell lines SH-SY5Y treated with 1-methyl-4-phenylpyridinium (MPP+). The series can be described thus: Improvement of mitochondrial function (Alamar Blue mitochondrial oxidation reduction activity) in MPP+-treated SH-SY5Y cells. The format is cell-based. Particulars: 1.5 mM MPP+, relative to cells in DMSO alone = 100%, read-out: Fluorescence Intensity (%); for activity at 0.01 µg/mL: compound 0.01 μg/ml; for activity at 0.03 µg/mL: compound 0.03 μg/ml; for activity at 0.1 µg/mL: compound 0.1 μg/ml; for activity at 0.3 µg/mL: compound 0.3 μg/ml; for activity at 1 µg/mL: compound 1 μg/ml. Here is the method:
In human neuroblastoma cell lines SH-SY5Y in which mitochondrial function was damaged by MPP^+ treatment (Bollimuntha S. et al., J Biol Chem, 280, 2132-2140 (2005) and Shang T. et al., J Biol Chem, 280, 34644-34653 (2005)), the improvement of mitochondrial function was evaluated on the basis of the measurement value for mitochondrial oxidation reduction activity using Alamar Blue fluorescent dye after the compound addition (Nakai M. et al, Exp Neurol, 179, 103-110 (2003)).
The human neuroblastoma cell lines SH-SY5Y were cultured in Dulbecco's Modified Eagle's Medium containing 10% fetal bovine serum (DMEM containing 50 units/ml penicillin and 50 μg/ml streptomycin as antibiotics) at 37° C. in the presence of 5% carbon dioxide. Cells were scattered on a poly-D-lysine-coated 96-well black plate at a concentration of 3−6×10^4 cells/cm^2 (medium amount: 100 μl/well) and cultured in the medium for two days. Further, the medium was changed to DMEM containing a 1% N2 supplement (N2-DMEM) or to a medium (100 μl/well) in which 1.5 mM MPP^+ was dissolved. The cells were cultured therein for 39 to 48 hours, and then subjected to a mitochondrial oxidation reduction activity measurement system. A sample compound that had been previously dissolved in dimethyl sulfoxide (DMSO) was diluted with N2-DMEM and added in a volume of 10 μl/well 24 hours before the activity measurement (final compound concentration: 0.01 to 1 μg/ml).
After removal of the medium by suction, a balanced salt solution containing 10% Alamar Blue (154 mM sodium chloride, 5.6 mM potassium chloride, 2.3 mM calcium chloride, 1.0 mM magnesium chloride, 3.6 mM sodium hydrogen carbonate, 5 mM glucose, 5 mM HEPES, pH 7.2) was added in a volume of 100 μl/well, and reacted in an incubator at 37° C. for 1 hour. The fluorescent intensity was detected using a fluorescence detector (a product of Hamamatsu Photonics K.K., excitation wavelength: 530 nm, measurement wavelength: 580 nm) to thereby measure the mitochondrial oxidation reduction activity.
The fluorescent intensity of the well of the cells cultured in a medium containing MPP^+ and each of the sample compounds was relatively evaluated based on the 100% fluorescent intensity of the well of the cells cultured in a medium containing DMSO alone (final concentration: 0.1%).

The test system of series [3] is dopamine transporter (DAT). The series can be described thus: Dopaminergic neuronal protective activity in MPTP-treated C57BL/6 mouse: DAT protein level in striatum (Western blot). The note with it: 10 mg/kg oral at 30 min, 24 h, 48 h after MPTP s.c.; striatum 72 h after MPTP; mouse without MPTP = 100%. The format is in vivo. As to the method:
as §1, §2, §3, §4

Series [4] deals with dopamine content in the brain corpus striatum region. Kind of series: Dopaminergic neuronal protective activity in MPTP-treated C57BL/6 mouse: dopamine content in striatum (HPLC). The class given is in vivo. Particulars: 10 mg/kg oral at 30 min, 24 h, 48 h after MPTP s.c.; striatum 72 h after MPTP; mouse without MPTP = 100%. Here is the method:
as §1, §2
The right striatum, the tissue weight of which was measured immediately after dissection, was used as an analysis sample for determining the dopamine content. Each tissue was homogenized in a 0.1 N perchloric acid solution containing isoproterenol as an internal standard substance of the measurement, using an ultrasonic homogenizer while being cooled with ice. The supernatant obtained from 20,000 g of homogenate that had been centrifuged at 4° C. for 15 minutes was subjected to a high-performance liquid chromatography with a reversed phase column (a product of Eicom Corporation). A mobile phase 15% methanol 0.1 M citric acid/0.1 M sodium acetate buffer solution (containing 190 mg/L 1-sodium octane sulfonate and 5 mg/L EDTA, pH 3.5) was flowed at a rate of 0.5 ml/min, and the dopamine peak of each sample was detected using an electrochemical detector (applied voltage: +750 mV vs. Ag/AgCl, a product of Eicom Corporation). With reference to the identified dopamine peak, the dopamine content per tissue weight was calculated in each sample using analysis software (a product of Gilson Inc.).
as §4

For the compound `CCCSc1ccc(C)c2c(=O)c(-c3ccc(OC)cc3)c[nH]c12` [Example 70, 3-(4-Methoxyphenyl)-5-methyl-8-propylsulfanyl-1H-quinolin-4-one], the melting point fell in the range of 132 to 135 °C. Further, the “Protein level of tyrosine hydroxylase (TH) in the brain corpus striatum region (% of control)” value in series [1] was 90.2 % of control. Further, in series [2], the activity at 0.01 µg/mL came to 48%, the activity at 0.03 µg/mL came out at 56%, the activity at 0.1 µg/mL stood at 61% and the activity at 0.3 µg/mL is 50%. In series [2], the activity at 1 µg/mL amounted to 22%. The “Protein level of dopamine transporter (DAT) in the brain corpus striatum region (% of control)” value in series [3] was 64.1 % of control. Besides, in series [4], the “Dopamine content in the brain corpus striatum region (% of control)” value (from here on “Dopamine content … (% of control)”) was 26.5 % of control.
On to `COc1ccc(-c2c[nH]c3c(-n4ccnc4)ccc(C)c3c2=O)cc1` [Example 67, 8-Imidazol-1-yl-3-(4-methoxyphenyl)-5-methyl-1H-quinolin-4-one], for which the melting point was in the range of 196 to 198 °C. For the same compound, the “Protein level of tyrosine hydroxylase (TH) in the brain corpus striatum region (% of control)” value in series [1] is recorded as 77.9 % of control. In series [2], the activity at 0.01 µg/mL was 45%, the activity at 0.03 µg/mL is 54%, the activity at 0.1 µg/mL is 61% and the activity at 0.3 µg/mL came out at 57%. Moreover, the activity at 1 µg/mL in series [2] was determined as 42%. In series [3], the “Protein level of dopamine transporter (DAT) in the brain corpus striatum region (% of control)” value is given as 50.9 % of control. The “Dopamine content … (% of control)” value in series [4] is listed as 26.7 % of control.
Turning to `CCCOc1ccc(C)c2c(=O)c(-c3ccc(OC)cc3)c[nH]c12` [Example 1, 3-(4-Methoxyphenyl)-5-methyl-8-propoxy-1H-quinolin-4-one], the melting point was in the range of 192 to 193 °C. Besides, in series [1], the “Protein level of tyrosine hydroxylase (TH) in the brain corpus striatum region (% of control)” value was 86.2 % of control. Also, in series [2], the activity at 0.01 µg/mL worked out at 58%, the activity at 0.03 µg/mL was 68%, the activity at 0.1 µg/mL turned out to be 73% and the activity at 0.3 µg/mL turned out to be 66%. In series [2], the activity at 1 µg/mL is 46%. Moreover, the “Protein level of dopamine transporter (DAT) in the brain corpus striatum region (% of control)” value in series [3] is 84.7 % of control. In addition, the “Dopamine content … (% of control)” value in series [4] is recorded as 39.6 % of control.
`CCCOc1ccc(C2CC2)c2c(=O)c(-c3ccc(OC)cc3)c[nH]c12` [Example 65, 5-Cyclopropyl-3-(4-methoxyphenyl)-8-propoxy-1H-quinolin-4-one] had a melting point of 168 to 170 °C. In addition, the “Protein level of tyrosine hydroxylase (TH) in the brain corpus striatum region (% of control)” value in series [1] is 65.2 % of control. Also, in series [2], the activity at 0.01 µg/mL was 59%, the activity at 0.03 µg/mL turned out to be 73%, the activity at 0.1 µg/mL is 78% and the activity at 0.3 µg/mL amounted to 66%. For the same compound, in series [2], the activity at 1 µg/mL was 20%. Besides, the “Protein level of dopamine transporter (DAT) in the brain corpus striatum region (% of control)” value in series [3] was 73.0 % of control. Moreover, in series [4], the “Dopamine content … (% of control)” value is reported as 31.2 % of control.
